Assay results reported in PMC7419507, “In vitro Cas9-assisted editing of modular polyketide synthase genes to produce desired natural product derivatives” (Nature Communications, 2020).
“And” between values parts separate entries of the source, which are not always exact repeats. Equal entries are not always repeated.

How the values were obtained:
[1] = Cytotoxicity assay (CellTiter-Glo, 72 h), Jurkat; assay type: cell-based; conditions: human, Jurkat cells (T lymphoma), raw data (replicates)
Summary of the method: (§1)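 1000 cells/well; 4 h settle, then 2-fold serial dilutions (0.5% DMSO final), 72 h, 37 °C/5% CO2. Read-out: CellTiter-Glo luminescence. Media: RPMI1640 + 10% FBS (Jurkat, MESO-1; Jurkat also Glutamax), DMEM + 10% FBS (SKOV-3).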

T lymphoma Jurkat cells = experiment: Cytotoxicity assay (CellTiter-Glo, 72 h), Jurkat; assay type: cell-based; conditions: raw data (replicates)
Summary of the method: as §1

[2] = Cytotoxicity assay (CellTiter-Glo, 72 h), SKOV-3; assay type: cell-based, human; conditions: human, raw replicate data, read-out: SKOV3 viability (%)
Summary of the method: as §1

[3] = tested on: human ovarian adenocarcinoma SKOV-3 cells; experiment: Cytotoxicity assay (CellTiter-Glo, 72 h), SKOV-3; assay type: cell-based; conditions: raw replicate data
Summary of the method: as §1

[4] = Cytotoxicity assay (CellTiter-Glo, 72 h), MESO-1; assay type: cell-based; conditions: human, MESO-1 malignant pleural mesothelioma cells, raw replicate data, read-out: MESO1 viability (%)
Summary of the method: as §1

[5] = tested on: malignant pleural mesothelioma MESO-1 cells; experiment: Cytotoxicity assay (CellTiter-Glo, 72 h), MESO-1; assay type: cell-based; conditions: raw replicate data
Summary of the method: as §1

[6] = tested on: Jurkat, SKOV-3 and MESO-1 cells; experiment: Cytotoxicity assay, statements for all tested cell lines together; assay type: cell-based; conditions: Jurkat, SKOV-3 and MESO-1 cells, 72 h
Summary of the method: as §1

COC1CC2CCC(C)C(O)(O2)C(=O)C(=O)N2CCCCC2C(=O)OC(C(C)CC2CCC(O)C(OC)C2)CC(=O)C(C)C=C(C)C(O)CC(=O)C(C)C=C(C)C=CC=CC=C1C (stereo not shown) [Compound 14]
viability at 72 h, 9.53674e-05 uM ([1]; conc 9.53674e-5 uM): 100%
viability at 72 h, 0.000190735 uM ([1]; conc 0.000190735 uM): 99.4%
viability at 72 h, 0.00038147 uM ([1]; conc 0.00038147 uM): 100%
viability at 72 h, 0.000762939 uM ([1]; conc 0.000762939 uM): 99.9%
viability at 72 h, 0.00152588 uM ([1]; conc 0.00152588 uM): 101%
viability at 72 h, 0.00305176 uM ([1]; conc 0.00305176 uM): 103%
viability at 72 h, 0.00610352 uM ([1]; conc 0.00610352 uM): 98.3%
viability at 72 h, 0.012207 uM ([1]; conc 0.012207 uM): 100%
viability at 72 h, 0.0244141 uM ([1]; conc 0.0244141 uM): 102%
viability at 72 h, 0.0488281 uM ([1]; conc 0.0488281 uM): 101%
viability at 72 h, 0.0976562 uM ([1]; conc 0.0976562 uM): 97.1%
viability at 72 h, 0.195312 uM ([1]; conc 0.195312 uM): 95.7%
viability at 72 h, 0.390625 uM ([1]; conc 0.390625 uM): 94%
viability at 72 h, 0.78125 uM ([1]; conc 0.78125 uM): 78.6%
viability at 72 h, 1.5625 uM ([1]; conc 1.5625 uM): 66.2%
viability at 72 h, 3.125 uM ([1]; conc 3.125 uM): 45.1%
viability at 72 h, 6.25 uM ([1]; conc 6.25 uM): 45.6%
viability at 72 h, 12.5 uM ([1]; conc 12.5 uM): 38.2%
viability at 72 h, 25 uM ([1]; conc 25 uM): 31.3%
viability at 72 h, 50 uM ([1]; conc 50 uM): 0.9%
Jurkat viability (%) (T lymphoma Jurkat cells; conc 9.53674e-5 uM): 99.0% and 99.6%
Jurkat viability (%) (T lymphoma Jurkat cells; conc 0.000190735 uM): 96.4% and 106.9%
Jurkat viability (%) (T lymphoma Jurkat cells; conc 0.00038147 uM): 106.3% and 110.1%
Jurkat viability (%) (T lymphoma Jurkat cells; conc 0.000762939 uM): 94.3% and 106.0%
Jurkat viability (%) (T lymphoma Jurkat cells; conc 0.00152588 uM): 101.0% and 106.0%
Jurkat viability (%) (T lymphoma Jurkat cells; conc 0.00305176 uM): 97.8%
Jurkat viability (%) (T lymphoma Jurkat cells; conc 0.00610352 uM): 106.2% and 106.5%
Jurkat viability (%) (T lymphoma Jurkat cells; conc 0.012207 uM): 99.3%
Jurkat viability (%) (T lymphoma Jurkat cells; conc 0.0244141 uM): 108.2% and 105.8%
Jurkat viability (%) (T lymphoma Jurkat cells; conc 0.0488281 uM): 103.9% and 107.5%
Jurkat viability (%) (T lymphoma Jurkat cells; conc 0.0976562 uM): 96.8%
Jurkat viability (%) (T lymphoma Jurkat cells; conc 0.195312 uM): 93.3% and 90.8%
Jurkat viability (%) (T lymphoma Jurkat cells; conc 0.390625 uM): 89.0% and 89.4%
Jurkat viability (%) (T lymphoma Jurkat cells; conc 0.78125 uM): 77.6% and 70.2%
Jurkat viability (%) (T lymphoma Jurkat cells; conc 1.5625 uM): 62.3% and 57.2%
Jurkat viability (%) (T lymphoma Jurkat cells; conc 3.125 uM): 49.0% and 51.4%
Jurkat viability (%) (T lymphoma Jurkat cells; conc 6.25 uM): 45.2% and 40.6%
Jurkat viability (%) (T lymphoma Jurkat cells; conc 12.5 uM): 39.4% and 37.1%
Jurkat viability (%) (T lymphoma Jurkat cells; conc 25 uM): 31.9% and 26.3%
Jurkat viability (%) (T lymphoma Jurkat cells; conc 50 uM): 1.0% and 0.558%
viability at 72 h, 9.53674e-05 uM ([2]; SKOV-3 cells (ovarian adenocarcinoma), conc 9.53674e-5 uM): 105%
viability at 72 h, 0.000190735 uM ([2]; SKOV-3 cells (ovarian adenocarcinoma), conc 0.000190735 uM): 103%
viability at 72 h, 0.00038147 uM ([2]; SKOV-3 cells (ovarian adenocarcinoma), conc 0.00038147 uM): 104%
viability at 72 h, 0.000762939 uM ([2]; SKOV-3 cells (ovarian adenocarcinoma), conc 0.000762939 uM): 102%
viability at 72 h, 0.00152588 uM ([2]; SKOV-3 cells (ovarian adenocarcinoma), conc 0.00152588 uM): 97.9%
viability at 72 h, 0.00305176 uM ([2]; SKOV-3 cells (ovarian adenocarcinoma), conc 0.00305176 uM): 98%
viability at 72 h, 0.00610352 uM ([2]; SKOV-3 cells (ovarian adenocarcinoma), conc 0.00610352 uM): 103%
viability at 72 h, 0.012207 uM ([2]; SKOV-3 cells (ovarian adenocarcinoma), conc 0.012207 uM): 97.1%
viability at 72 h, 0.0244141 uM ([2]; SKOV-3 cells (ovarian adenocarcinoma), conc 0.0244141 uM): 106%
viability at 72 h, 0.0488281 uM ([2]; SKOV-3 cells (ovarian adenocarcinoma), conc 0.0488281 uM): 100%
viability at 72 h, 0.0976562 uM ([2]; SKOV-3 cells (ovarian adenocarcinoma), conc 0.0976562 uM): 100%
viability at 72 h, 0.195312 uM ([2]; SKOV-3 cells (ovarian adenocarcinoma), conc 0.195312 uM): 97.3%
viability at 72 h, 0.390625 uM ([2]; SKOV-3 cells (ovarian adenocarcinoma), conc 0.390625 uM): 99.4%
viability at 72 h, 12.5 uM ([2]; SKOV-3 cells (ovarian adenocarcinoma), conc 12.5 uM): 81.9%
viability at 72 h, 25 uM ([2]; SKOV-3 cells (ovarian adenocarcinoma), conc 25 uM): 73.7%
viability at 72 h, 50 uM ([2]; SKOV-3 cells (ovarian adenocarcinoma), conc 50 uM): 60.7%
viability at 72 h, 0.78125 uM ([2]; SKOV-3 ovarian adenocarcinoma cells, conc 0.78125 uM): 93.1%
viability at 72 h, 1.5625 uM ([2]; SKOV-3 ovarian adenocarcinoma cells, conc 1.5625 uM): 91.2%
viability at 72 h, 3.125 uM ([2]; SKOV-3 ovarian adenocarcinoma cells, conc 3.125 uM): 84.5%
viability at 72 h, 6.25 uM ([2]; SKOV-3 ovarian adenocarcinoma cells, conc 6.25 uM): 78.2%
SKOV3 viability (%) ([3]; conc 9.53674e-5 uM): 98.4% and 95.5%
SKOV3 viability (%) ([3]; conc 0.000190735 uM): 101.1% and 93.2%
SKOV3 viability (%) ([3]; conc 0.00038147 uM): 101.8% and 98.2%
SKOV3 viability (%) ([3]; conc 0.000762939 uM): 98.4% and 94.2%
SKOV3 viability (%) ([3]; conc 0.00152588 uM): 99.8% and 104.2%
SKOV3 viability (%) ([3]; conc 0.00305176 uM): 98.8% and 92.1%
SKOV3 viability (%) ([3]; conc 0.00610352 uM): 101.4% and 103.8%
SKOV3 viability (%) ([3]; conc 0.012207 uM): 94.0% and 97.4%
SKOV3 viability (%) ([3]; conc 0.0244141 uM): 103.2% and 105.4%
SKOV3 viability (%) ([3]; conc 0.0488281 uM): 98.2% and 100.0%
SKOV3 viability (%) ([3]; conc 0.0976562 uM): 101.8% and 110.3%
SKOV3 viability (%) ([3]; conc 0.195312 uM): 98.6% and 95.1%
SKOV3 viability (%) ([3]; conc 0.390625 uM): 104.4%
SKOV3 viability (%) ([3]; conc 0.78125 uM): 86.0% and 88.0%
SKOV3 viability (%) ([3]; conc 1.5625 uM): 92.8% and 89.9%
SKOV3 viability (%) ([3]; conc 3.125 uM): 80.6% and 76.1%
SKOV3 viability (%) ([3]; conc 6.25 uM): 79.5%
SKOV3 viability (%) ([3]; conc 12.5 uM): 67.2% and 69.9%
SKOV3 viability (%) ([3]; conc 25 uM): 77.7% and 72.7%
SKOV3 viability (%) ([3]; conc 50 uM): 51.8% and 56.0%
viability at 72 h, 9.53674e-05 uM ([4]; conc 9.53674e-5 uM): 96.6%
viability at 72 h, 0.000190735 uM ([4]; conc 0.000190735 uM): 97.8%
viability at 72 h, 0.00038147 uM ([4]; conc 0.00038147 uM): 94.8%
viability at 72 h, 0.000762939 uM ([4]; conc 0.000762939 uM): 104%
viability at 72 h, 0.00152588 uM ([4]; conc 0.00152588 uM): 102%
viability at 72 h, 0.00305176 uM ([4]; conc 0.00305176 uM): 94.6%
viability at 72 h, 0.00610352 uM ([4]; conc 0.00610352 uM): 95.7%
viability at 72 h, 0.012207 uM ([4]; conc 0.012207 uM): 94.6%
viability at 72 h, 0.0244141 uM ([4]; conc 0.0244141 uM): 94.7%
viability at 72 h, 0.0488281 uM ([4]; conc 0.0488281 uM): 96.1%
viability at 72 h, 0.0976562 uM ([4]; conc 0.0976562 uM): 102%
viability at 72 h, 0.195312 uM ([4]; conc 0.195312 uM): 90.3%
viability at 72 h, 0.390625 uM ([4]; conc 0.390625 uM): 93.7%
viability at 72 h, 0.78125 uM ([4]; conc 0.78125 uM): 79%
viability at 72 h, 1.5625 uM ([4]; conc 1.5625 uM): 79.3%
viability at 72 h, 3.125 uM ([4]; conc 3.125 uM): 75%
viability at 72 h, 6.25 uM ([4]; conc 6.25 uM): 77.6%
viability at 72 h, 12.5 uM ([4]; conc 12.5 uM): 72.5%
viability at 72 h, 25 uM ([4]; conc 25 uM): 74.6%
viability at 72 h, 50 uM ([4]; conc 50 uM): 59.3%
MESO1 viability (%) ([5]; conc 9.53674e-5 uM): 99.4% and 103.8%
MESO1 viability (%) ([5]; conc 0.000190735 uM): 95.6% and 99.1%
MESO1 viability (%) ([5]; conc 0.00038147 uM): 104.7% and 94.5%
MESO1 viability (%) ([5]; conc 0.000762939 uM): 96.5%
MESO1 viability (%) ([5]; conc 0.00152588 uM): 101.1% and 98.7%
MESO1 viability (%) ([5]; conc 0.00305176 uM): 99.6% and 99.1%
MESO1 viability (%) ([5]; conc 0.00610352 uM): 100.1%
MESO1 viability (%) ([5]; conc 0.012207 uM): 95.8% and 96.3%
MESO1 viability (%) ([5]; conc 0.0244141 uM): 100.3% and 106.1%
MESO1 viability (%) ([5]; conc 0.0488281 uM): 100.9% and 99.1%
MESO1 viability (%) ([5]; conc 0.0976562 uM): 96.4% and 97.3%
MESO1 viability (%) ([5]; conc 0.195312 uM): 87.1% and 89.8%
MESO1 viability (%) ([5]; conc 0.390625 uM): 94.1% and 98.7%
MESO1 viability (%) ([5]; conc 0.78125 uM): 79.4% and 79.1%
MESO1 viability (%) ([5]; conc 1.5625 uM): 71.5% and 77.1%
MESO1 viability (%) ([5]; conc 3.125 uM): 73.4% and 72.1%
MESO1 viability (%) ([5]; conc 6.25 uM): 74.3% and 73.5%
MESO1 viability (%) ([5]; conc 12.5 uM): 68.9% and 72.8%
MESO1 viability (%) ([5]; conc 25 uM): 69.4% and 68.8%
MESO1 viability (%) ([5]; conc 50 uM): 60.5% and 62.4%
Effect on cell viability, in words [6]: slightly suppressed the cell viabilities
